# Measurements as given in article PMC11311998, “AR71, Histamine H3 Receptor Ligand—In Vitro and In Vivo Evaluation (Anti-Inflammatory Activity, Metabolic Stability, Toxicity, and Analgesic Action)” (International Journal of Molecular Sciences, 2024).
# pIC50: −log10 of the molar value.
# Legend:
# human astrocytes = experiment: viability of human astrocytes (MTT assay); format: cell-based; conditions: for pIC50: Homo sapiens, Astrocyte
# Protocol: We investigated the effect of AR71 in a wide range of concentrations (0.78–100 μM) on the viability of human astrocyte cell lines after 2, 24, 48, and 72 h of incubation (Figure 6). Prolonged incubation of human astrocytes with AR71 caused a dose-dependent decrease in cell viability.
# The astrocyte cell line from the human cerebral cortex was purchased from ScienCell Research Laboratories (San Diego, CA, USA; Cat no. 1800) and maintained according to the protocol recommended by the company (the ScienCell Research Laboratories’ protocol).
# The colorimetric MTT assay using 3-(4,5-dimethylthiazol-2-yl)-2,5-diphenyltetrazolium bromide (MTT; Sigma-Aldrich Chemical Co. Ltd., Saint Louis, MO, USA) was used for evaluation of astrocytes viability. The experiment was carried out following the procedure described in detail previously. Astrocytes were seeded onto 96-well plates at a final density of 10 × 10^3 cells/well. Following 24 h of culture, the cells were treated with AR71 (0.78–100 μM) for […], 24, 48, or 72 h. After the respective incubation periods, MTT solution was added to the cell culture for another four hours. Absorbance was measured at 570 nm using a BioTek EL 800× microplate reader (BioTek, Winooski, VT, USA), with the value directly proportional to the number of viable cells. Cell viability was calculated by the following formula: Viability [%] = (A/AC) × 100%, where A represents the absorbance of the investigated sample and AC represents the absorbance of the negative control (untreated cells). The positive control (vehicle) was 0.1% DMSO.
# SH-SY5Y cells = format: cell-based, human; conditions: without rotenone
# Protocol: To test neuroprotective activity, SH-SY5Y cells were pre-treated for 1 h with various concentrations of AR71, after which rotenone (6.25 μM) was added and the cells were cultured for another 24 h. […] Co-treatment with AR71 protected cells from the toxic effect of rotenone, resulting in LDH leakage ranging from 10 to 22% only.
# The protective effect of AR71 against rotenone-induced toxicity in SH-SY5Y cells was assessed by measuring LDH release. SH-SY5Y cells (6 × 10^3 cells/100 μL/well) were seeded in black 96-well plates Nunclon^TM Delta Surface no. 137101 (ThermoFischer Scientific, Waltham, MA, USA) and cultured overnight. The next day, the medium was removed and replaced with a fresh one with an increasing concentration of AR71 (0.0975–50 μM). After 1 h of compound pre-treatment, the neurotoxin rotenone (6.25 μM) was added, and the cells were cultured for another 24 h. For the negative and positive controls, cells were treated with 0.1% DMSO and 6.25 μM of rotenone alone, respectively. The cells treated with the compound alone were used to compare the effect with those co-treated with rotenone. After 24 h, the level of LDH leakage was measured by the CytoTox-ONE™ Homogeneous Membrane Integrity Assay (Promega, Madison, WI, USA) following the manufacturer’s protocol. Briefly, 100 μL of CytoTox-ONE™ reagent (Promega, Madison, WI, USA) was added to each well, and the cells were incubated for 10 min at room temperature protected from light. The fluorescence was measured using the multimode plate reader Tecan Spark (Tecan, Männedorf, Switzerland) with an excitation wavelength of 560 nm and an emission wavelength of 590 nm.
# BV-2 cells = test system: BV-2 cells; design: method as in PMID 36370200; conditions: LPS-treated BV-2 cells; cited from earlier work
# CCI-exposed mice = experiment: cold plate test in CCI neuropathic pain model; format: in vivo, mouse
# Protocol: The effects of a single intraperitoneal (i.p.) injection of AR71 at doses of 5, 10, and 20 mg/kg on mechanical (von Frey test) and thermal (cold plate and tail flick tests) stimulus were evaluated on day 14 following sciatic nerve injury (Figure 15). There were seven to eight animals per group. All these tests were performed in three time series after the administration of the compound. In the case of the von Frey test—after 30, 90, and 180 min; the cold plate test—after 35, 95, and 185 min; and the tail flick test—after 40, 100, and 190 min.
# The mice were randomly divided into four experimental groups. […] All data from behavioural tests were analysed using a one-way ANOVA with Bonferroni’s multiple comparison post hoc test. […]
# The cold plate test (performed by the Cold/Hot Plate Analgesia Meter, Columbus Instruments, N. Hague Ave, Columbus, OH, USA) was used to assess sensitivity to noxious thermal stimuli. […] The mice were placed on a cold plate, and the time it took to lift the injured paw was recorded.
smiles,measurement,setting,value
"COc1cc(/C=C/C(=O)c2ccc(OCCCN3CCCCC3)cc2)cc(OC)c1OC [AR71, (E)-3-(3,4,5-trimethoxyphenyl)-1-(4-(3-(piperidin-1-yl)propoxy)phenyl)prop-2-en-1-one]",effect on astrocyte viability at low concentrations,"human astrocytes; 1.56 and 3.12 μM, 48 h, did not persist after 72 h",statistically significant proliferation
same,pIC50,human astrocytes; 2 h incubation,4.38
same,pIC50,human astrocytes; 24 h incubation,4.69
same,pIC50,human astrocytes; 48 h incubation,4.90
same,pIC50,human astrocytes; 72 h incubation,5.01
same,LDH leakage compared with control cells,SH-SY5Y cells; 50 μM,~60%
same,effect on cell membrane integrity (LDH),SH-SY5Y cells; 0.0975–25 μM,did not disturb the cell membrane
same,"effect on proinflammatory cytokines (IL-1β, IL-6, TNF-α), mRNA and protein level",BV-2 cells,reduced the level of proinflammatory cytokines
same,effect in cold plate test vs control,"CCI-exposed mice; 5, 10 and 20 mg/kg i.p., 35 min (5 mg/kg p < 0.05; 10 and 20 mg/kg p < 0.001)",Analgesic effects
same,effect in cold plate test vs control,"CCI-exposed mice; 95 and 185 min after injection, 10 and 20 mg/kg i.p.",only the two higher doses were effective
